Measured values as given in patent publication US20090203064A1, “METHOD AND DEVICE FOR MONITORING PLATELET FUNCTION” (PLACOR INC., priority 2002, published 2009).

Tested on: platelet function
Test: Platelet plug formation time of arterial blood from pigs receiving platelet inhibitors (wire-in-tube device)
Assay type: in vivo
Description: Pigs were placed on various platelet inhibitors and then the platelet function of the pigs was monitored. Twenty-five pigs received 300 mg aspirin daily for seven days. Ten pigs received 300 mg ticlopidine (an ADP inhibitor) daily. Ten pigs received a combination of 300 mg aspirin and 300 mg ticlopidine daily. Twenty microliters of blood were drawn into the lumen of the tube at a rate of 1.0 microliter per second. The wire was 0.016 inches in diameter and the inner diameter of the tube was 0.034 inches in diameter. Blood (20 μl) was delivered via a three-way flow divider (a Touhy-Borst Connector) into a TEFLON tube 2 inches long with a stainless steel wire […] in diameter inserted through the tube and extending about three-fourths of the length of the tube. The wire was held in place at the end of the tube. The tube was coupled to a Hamilton syringe pump and to a HP blood pressure transducer for measuring the pressure in the tube. The platelet plug formation time was determined as damping of the blood pressure signal.

SMILES | Mean platelet plug time (300 mg aspirin daily, after 3 days) | Mean platelet plug time (300 mg aspirin daily, after 7 days) | Mean platelet plug time (300 mg ticlopidine daily, after 3 days) [min] | Mean platelet plug time (300 mg ticlopidine daily, after 7 days) [min]
CC(=O)Oc1ccccc1C(=O)O [aspirin] | 3.9 (± 0.25) minutes | 4.6 (± 0.42) minutes |  | 
Clc1ccccc1CN1CCc2sccc2C1 [ticlopidine] |  |  | 5.67 | 6.21
